What was measured:
Settings in all cases: incubation time: 72 h
SK-BR-3 = experiment: normalised response (% of control), CellTiter-Glo; higher = more viable cells (100 = DMSO, 0 = benzethonium chloride kill control)
Experimental: (§1)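 DSRT, 72 h incubation, CellTox Green / CellTiter-Glo readout. Signal is normalised to DMSO and benzethonium chloride controls. Value is the normalised response at dose 3.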

Hs578T [1] = experiment: as above
Experimental: as §1

HCC1143 [2] = experiment: as above
Experimental: as §1

CAL-148 [3] = experiment: as above
Experimental: as §1

HDQ-P1 [4] = experiment: as above
Experimental: as §1

CAL-120 [5] = experiment: as above
Experimental: as §1

MDA-MB-436 [6] = experiment: as above
Experimental: as §1

MDA-MB-453 [7] = experiment: as above
Experimental: as §1

BT-474 [8] = experiment: as above
Experimental: as §1

HCC1599 [9] = experiment: as above
Experimental: as §1

MCF-10A [10] = experiment: as above
Experimental: as §1

MDA-MB-231 [11] = experiment: as above
Experimental: as §1

MDA-MB-468 [12] = experiment: as above
Experimental: as §1

BT-549 [13] = experiment: as above
Experimental: as §1

HCC1937 [14] = experiment: as above
Experimental: as §1

CAL-85-1 [15] = experiment: as above
Experimental: as §1

MFM-223 [16] = experiment: as above
Experimental: as §1

CAL-51 [17] = experiment: as above
Experimental: as §1

DU-4475 [18] = experiment: as above
Experimental: as §1

Hs578T [19] = experiment: normalised response (% of control), CellTox Green; higher = less cell death (100 = DMSO, 0 = benzethonium chloride kill control)
Procedure, shortened: (§2)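 Values are normalised signals, each belonging to one concentration of the series. Breast cancer cells (20 µl suspension) were seeded into 384-well plates with compound at 5 concentrations in 10-fold steps over a compound-specific 10,000-fold range and incubated 72 h. Readouts were CellTox Green fluorescence (485/520 nm), then CellTiter-Glo luminescence after 10 min at room temperature, with each plate set to 0.1 % DMSO as 100 and a positive kill control as 0.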

HCC1143 [20] = experiment: as above
Procedure, shortened: as §2

CAL-148 [21] = experiment: as above
Procedure, shortened: as §2

HDQ-P1 [22] = experiment: as above
Procedure, shortened: as §2

CAL-120 [23] = experiment: as above
Procedure, shortened: as §2

MDA-MB-436 [24] = experiment: as above
Procedure, shortened: as §2

MDA-MB-453 [25] = experiment: as above
Procedure, shortened: as §2

BT-474 [26] = experiment: as above
Procedure, shortened: as §2

HCC1599 [27] = experiment: as above
Procedure, shortened: as §2

MCF-10A [28] = experiment: as above
Procedure, shortened: as §2

MDA-MB-231 [29] = experiment: as above
Procedure, shortened: as §2

MDA-MB-468 [30] = experiment: as above
Procedure, shortened: as §2

BT-549 [31] = experiment: as above
Procedure, shortened: as §2

CAL-85-1 [32] = experiment: as above
Procedure, shortened: as §2

MFM-223 [33] = experiment: as above
Procedure, shortened: as §2

CAL-51 [34] = experiment: as above
Procedure, shortened: as §2

DU-4475 [35] = experiment: as above
Procedure, shortened: as §2

HCC1937 [36] = experiment: as above
Procedure, shortened: as §2

Row | Structure (SMILES) | normalised response (SK-BR-3) [%] | normalised response (Hs578T [1]) [%] | normalised response (HCC1143 [2]) [%] | normalised response (CAL-148 [3]) [%] | normalised response (HDQ-P1 [4]) [%] | normalised response (CAL-120 [5]) [%] | normalised response (MDA-MB-436 [6]) [%] | normalised response (MDA-MB-453 [7]) [%] | normalised response (BT-474 [8]) [%] | normalised response (HCC1599 [9]) [%] | normalised response (MCF-10A [10]) [%] | normalised response (MDA-MB-231 [11]) [%] | normalised response (MDA-MB-468 [12]) [%] | normalised response (BT-549 [13]) [%] | normalised response (HCC1937 [14]) [%] | normalised response (CAL-85-1 [15]) [%] | normalised response (MFM-223 [16]) [%] | normalised response (CAL-51 [17]) [%] | normalised response (DU-4475 [18]) [%] | normalised response (Hs578T [19]) [%] | normalised response (HCC1143 [20]) [%] | normalised response (CAL-148 [21]) [%] | normalised response (HDQ-P1 [22]) [%] | normalised response (CAL-120 [23]) [%] | normalised response (MDA-MB-436 [24]) [%] | normalised response (MDA-MB-453 [25]) [%] | normalised response (BT-474 [26]) [%] | normalised response (HCC1599 [27]) [%] | normalised response (MCF-10A [28]) [%] | normalised response (MDA-MB-231 [29]) [%] | normalised response (MDA-MB-468 [30]) [%] | normalised response (BT-549 [31]) [%] | normalised response (CAL-85-1 [32]) [%] | normalised response (MFM-223 [33]) [%] | normalised response (CAL-51 [34]) [%] | normalised response (DU-4475 [35]) [%] | normalised response (HCC1937 [36]) [%]
1 | Nc1ccn([C@@H]2O[C@H](CO)[C@@H](O)[C@@H]2O)c(=O)n1 [Cytarabine] (100 nM) | 80.1 | 96.7 | 98.8 | 74.7 | 96.7 | 101 | 95.1 | 141 | 97.3 | 88.6 | 110 | 99 | 94.6 | 94 | 98.9 | 96.5 | 95.3 | 85.8 | 90.4 | 106 | 99.4 | 75.5 | 101 | 109 | 81.4 | 108 | 104 | 111 | 102 | 115 | 103 | 113 | 103 | 102 | 88.1 | 112 | 
2 | Cc1c2oc3c(C)ccc(C(=O)N[C@@H]4C(=O)N[C@H](C(C)C)C(=O)N5CCC[C@H]5C(=O)N(C)CC(=O)N(C)[C@@H](C(C)C)C(=O)O[C@@H]4C)c3nc-2c(C(=O)N[C@@H]2C(=O)N[C@H](C(C)C)C(=O)N3CCC[C@H]3C(=O)N(C)CC(=O)N(C)[C@@H](C(C)C)C(=O)O[C@@H]2C)c(N)c1=O [Dactinomycin] (10 nM) | 59.2 | 58.7 | 54.7 | 27.2 | 41.5 | 65 | 53.4 | 84.7 | 64.6 | 102 | 52.2 | 62.1 | 18.7 | 13.3 | 51 | 51.7 | 88.9 | 20.4 | 3.42 | 104 | 117 | 17.1 | 82.8 | 102 | 90.8 | 91.5 | 102 | 99.3 | 109 | 43.8 | 84 | 80.4 | 69.3 | 104 | -32.3 | 74.7 | 107
